The source of these data is article PMC6978316, “Development of chimeric peptides to facilitate the neutralisation of lipopolysaccharides during bactericidal targeting of multidrug-resistant Escherichia coli” (Communications Biology, 2020).

One data set deals with E. coli CVCC1515. Description: MIC, microtiter broth dilution. The note with it: 37 °C, 16–18 h, three independent experiments. In kind it is cell-based, Escherichia coli. The procedure:
(§1) The MIC values of A6, G6, the parental peptides (N6 and LBP14), LBPN6, scramble controls (N6CK, A6CK, and G6CK), and PMB were determined by the microtiter broth dilution method. The tested strains included Gram-negative bacteria, Gram-positive bacteria, and fungi and were cultured to the logarithmic growth phase, diluted to 10^5 CFU per ml, and added into 96-well plates (90 μl per well). Peptides or antibiotic were diluted with PBS by 2-fold dilution and were added to each well (10 μl per well). Polymyxin B (PMB) and PBS were used as the positive and negative control, respectively. […] All experiments were repeated three times.
For orientation: Broth dilution looks for growth in wells or tubes with falling amounts of substance.

The next data set concerns S. pullorum CVCC533. Description: MIC, microtiter broth dilution. It counts as cell-based, Salmonella pullorum. The note with it: 37 °C, 16–18 h, three independent experiments. As to the method:
as §1

The test system of data set [1] is Enterococcus faecalis CVCC3936. Description: MIC, microtiter broth dilution. In kind it is cell-based. The note with it: 37 °C, 16–18 h, three independent experiments. As to the method: as §1
The test system of data set [2] is Pseudomonas aeruginosa CICC10419. Description: MIC, microtiter broth dilution. To be noted: 37 °C, 16–18 h, three independent experiments. It counts as cell-based. The procedure:
as §1

In data set [3] the test system is Staphylococcus aureus ATCC43300. Description: MIC, microtiter broth dilution. It counts as cell-based. To be noted: 37 °C, 16–18 h, three independent experiments. The procedure:
as §1

Data set [4] has as its system Streptococcus suis CVCC606. Description: MIC, microtiter broth dilution. In kind it is cell-based. The note with it: 37 °C, 16–18 h, three independent experiments. The procedure:
as §1

A further data set relates to pepsin. It counts as in vitro ADME.
A further data set has as its system trypsin. It counts as in vitro ADME.
A short description of another data set: in vitro. To be noted: for peptide remained intact in serum / remaining at 1 h / remaining at 2 h / remaining at 4 h: mice serum, 37 °C, RP-HPLC; for half-life / remaining at 1 h / remaining at 2 h / remaining at 4 h: mouse, serum. The procedure: The thermal, pH and enzyme stability of A6 and G6 were evaluated against MDR E. coli CVCC195 using a previous method with minor revisions. The N6, A6, and G6 solutions were treated at different temperatures (20–100 °C) for 1 h, dissolved and incubated at different pH values (2–10) for 3 h, or incubated with trypsin or pepsin for 4 h. The inhibition zone diameters were measured after incubation at 37 °C for 18–24 h. The peptides were dissolved in H2O or mice serum at 37 °C to detect their serum stability and samples were removed at different time points to determine their residual activity by the inhibition zone or reverse-phase high-performance liquid chromatography (RP-HPLC) methods[62],[63].

Data set [5] can be described thus: Biodistribution of FITC-labeled peptides (in vivo fluorescence imaging). The note with it: nude mice, FITC-labeled peptide 5 mg per kg intraperitoneally. As to the method:
The nude mice were intraperitoneally injected with 5 mg per kg FITC-labeled A6, G6, and N6, respectively. Free FITC was used as a negative control.

In a further data set the test system is E. coli LPS. Description: Sepsis mouse model, survival after lethal LPS challenge. In kind it is in vivo, ICR mice. The note with it: mice, LPS 13.5 mg per kg i.p., 7 d, n = 5; for survival rate: 0.0625 μmol per kg; for mouse survival: 0.125 μmol per kg. The procedure: (§2) The mouse survival was recorded for 7 d. The mice injected with LPS or saline were used as negative or blank controls, respectively.

The subject of data set [6] is S. aureus, Enterococcus faecalis, and Streptococcus suis. It counts as cell-based. As to the method: as §1
The test system of another data set is MDR E. coli CVCC195. Description: Sepsis mouse model, survival after lethal E. coli challenge. It counts as in vivo, ICR mice. The note with it: mice, E. coli 5 × 10^8 CFU i.p.; 0.25 μmol per kg; 7 d; n = 5. As to the method: as §2
Where [7] appears, read: peptide remaining in serum, Mean, 1 h, mean of n = 3 (source data Fig. 2f).
Where [8] appears, read: peptide remaining in serum, Mean, 2 h, mean of n = 3 (source data Fig. 2f).
The mark [9] stands for this setting: peptide remaining in serum, Mean, mean of n = 3 (source data Fig. 2f).

Where a SMILES comes first, the peptide text is derived from it. Bridges are numbered along the chain shown (N, C = ends).

Regarding `CC(C)[C@@H]1NC(=O)CNC(=O)[C@H](CC(N)=O)NC(=O)[C@H](CCCNC(=N)N)NC(=O)[C@H](Cc2ccc(O)cc2)NC(=O)[C@H](C(C)C)NC(=O)[C@@H](NC(=O)[C@@H](NC(=O)[C@H](CC(N)=O)NC(=O)[C@H](Cc2c[nH]c3ccccc23)NC(=O)[C@H](C)NC(=O)[C@H](Cc2ccccc2)NC(=O)CNC(=O)[C@H](CO)NC(=O)CNC(=O)CNC(=O)CNC(=O)CNC(=O)[C@H](CCCCN)NC(=O)[C@H](Cc2ccccc2)NC(=O)[C@H](Cc2ccccc2)NC(=O)[C@H](CO)NC(=O)[C@H](C)NC(=O)[C@H](CCCNC(=N)N)NC(=O)[C@@H](NC(=O)[C@H](CCCCN)NC(=O)[C@H](Cc2c[nH]c3ccccc23)NC(=O)[C@H](CCCNC(=N)N)NC(=O)CNC(=O)[C@H](CCC(N)=O)NC(=O)[C@@H](NC(=O)[C@@H](N)CCCNC(=N)N)C(C)C)C(C)C)C(C)C)CSSC[C@@H](C(=O)N[C@@H](Cc2c[nH]cn2)C(=O)N[C@@H](CCCNC(=N)N)C(=O)N[C@@H](CCCNC(=N)N)C(=O)N[C@@H](C)C(=O)N[C@@H](CC(N)=O)C(=O)O)NC(=O)[C@H](C(C)C)NC(=O)[C@H](CCCNC(=N)N)NC1=O` [G6] (H-RVQGRWKVRASFFKGGGGSGFAWNVCVYRNGVRVCHRRAN-OH; disulfide 26-35), the MIC (against E. coli CVCC1515; in the data set with S. pullorum CVCC533; in data set [1]; in data set [2]; in data set [3]; in [4]) was 16 μg per ml each time. Also, the “antibacterial activity after pepsin (inhibition zone diameter), Mean” value in the data set with pepsin came out at 1.607. The “antibacterial activity without enzyme (inhibition zone diameter), Mean” value in the data set on pepsin is given as 1.439. Further, the “antibacterial activity after trypsin (inhibition zone diameter), Mean” value with trypsin is listed as 0. Moreover, the “peptide remained intact in serum” value in the data set “in vitro” (1 h) turned out to be 68.5%; in “in vitro” (2 h), 29.5%. Also, the half-life (usually how long it takes for the measured level to halve) in the data set “in vitro” was less than 2 h. In addition, the fraction remaining – broadly, the share of the starting amount still present when the sample was taken – at 1 h in the data set “in vitro” (setting [7]) stood at 68.6%. In the data set “in vitro” (setting [8]), this molecule gave a fraction remaining at 2 h of 29.6%. The same molecule had a share remaining at 4 h in the data set “in vitro” (setting [9]) of 11.2%. Also, the “time after injection at which the fluorescence disappeared / peptide was excreted” value in [5] is 48 h. The molecule further registered a survival rate in the data set with E. coli LPS of 80%. The same molecule gave a mouse survival with E. coli LPS of 100%. Moreover, the “MICs against S. aureus, Enterococcus faecalis, and Streptococcus suis” value in data set [6] was “greater than 3.52 μM”.
Turning to polymyxin B [PMB], the survival rate in the data set with MDR E. coli CVCC195 stood at 100%. In addition, the survival result with E. coli LPS (10 μmol per kg) is given as “All mice survived”.
In the case of “H-RVQGRWKVRASFFKEAAAKEAAAKGFAWNVCVYRNGVRVCHRRAN-OH (disulfide 31-40) [A6]”, in the data set with pepsin, the “antibacterial activity after pepsin (inhibition zone diameter), Mean” value came to 1.623 and the “antibacterial activity without enzyme (inhibition zone diameter), Mean” value was 1.456. Also, the “antibacterial activity after trypsin (inhibition zone diameter), Mean” value in the data set with trypsin was 0. The half-life in the data set “in vitro” is less than 2 h. Further, in the data set “in vitro” (peptide remained intact in serum, 2 h), the amount remaining at 2 h turned out to be 7%. The fraction remaining at 1 h in the data set “in vitro” (setting [7]) amounted to 27%. In the data set “in vitro” (setting [8]), this molecule had an amount remaining at 2 h of 7.18%. In the data set “in vitro” (setting [9]), the share remaining at 4 h was found to be 4.77%. In addition, the “time after injection at which the fluorescence disappeared / peptide was excreted” value in data set [5] came out at 48 h. Further, in the data set with E. coli LPS, the survival rate was found to be 60% and the mouse survival is 100%. Moreover, the “MICs against S. aureus, Enterococcus faecalis, and Streptococcus suis” value in data set [6] is on record as “greater than 3.52 μM”.
With `CC(C)[C@@H]1NC(=O)CNC(=O)[C@H](CC(N)=O)NC(=O)[C@H](CCCNC(=N)N)NC(=O)[C@H](Cc2ccc(O)cc2)NC(=O)[C@H](C(C)C)NC(=O)[C@@H](NC(=O)[C@@H](NC(=O)[C@H](CC(N)=O)NC(=O)[C@H](Cc2c[nH]c3ccccc23)NC(=O)[C@H](C)NC(=O)[C@H](Cc2ccccc2)NC(=O)CN)C(C)C)CSSC[C@@H](C(=O)N[C@@H](Cc2c[nH]cn2)C(=O)N[C@@H](CCCNC(=N)N)C(=O)N[C@@H](CCCNC(=N)N)C(=O)N[C@@H](C)C(=O)N[C@@H](CC(N)=O)C(=O)O)NC(=O)[C@H](C(C)C)NC(=O)[C@H](CCCNC(=N)N)NC1=O` [N6] (H-GFAWNVCVYRNGVRVCHRRAN-OH; disulfide 7-16; N-terminus and C-terminus assumed), the mouse survival in the data set with E. coli LPS came out at 60%. Besides, the survival result in the data set on E. coli LPS (0.25 μmol per kg) was “All mice survived”.
